Results taken from PubChem BioAssay AID256 (DTP/NCI, 2004).
Several values for one entry are separate records, joined by “and”; a condition that tells them apart may be missing. Identical values can stand only once. Toxic doses and inconclusive results are not listed.

Tested on: CD2F1 mice, L1210 leukemia ip, survival T/C
Experiment: NCI In Vivo Anticancer Drug Screen. Data for tumor model L1210 Leukemia (intraperitoneal) in CD2F1 (CDF1) mice
Settings: higher = longer survival
Outline: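 Vehicle-treated tumor-bearing mice served as controls (C) for compound-treated mice (T). Reported figure is T divided by C.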

[1] = endpoint: mean survival time, dose: 100.0 mg/kg/injection, schedule: Q04DX003 (ip), vehicle: saline with Tween-80
[2] = endpoint: mean survival time, dose: 200.0 mg/kg/injection, schedule: Q04DX003 (ip), vehicle: saline with Tween-80
[3] = endpoint: mean survival time, dose: 400.0 mg/kg/injection, schedule: Q04DX003 (ip), vehicle: saline with Tween-80
[4] = endpoint: mean survival time, dose: 100.0 mg/kg/injection, schedule: Q01DX009 (ip), vehicle: saline with Tween-80
[5] = endpoint: mean survival time, dose: 2.5 mg/kg/injection, schedule: Q01DX009 (ip), vehicle: saline with Tween-80

`CO[C@]12[C@@H](COC(=O)NCCO)C3=C(C(=O)C(C)=C(N)C3=O)N1C[C@@H]1[C@H]2N1C` (stereo partly drawn) was tested, and the T/C (endpoint: mean survival time, dose: 12.5 mg/kg/injection, schedule: Q01DX009 (ip), vehicle: saline) was 112 % of control, the T/C (endpoint: mean survival time, dose: 50.0 mg/kg/injection, schedule: Q01DX009 (ip), vehicle: saline) was 119 % of control and the T/C (endpoint: mean survival time, dose: 75.0 mg/kg/injection, schedule: Q01DX001 (ip), vehicle: saline) was 114 % of control. For the same compound, the T/C (endpoint: mean survival time, dose: 150.0 mg/kg/injection, schedule: Q01DX001 (ip), vehicle: saline) was 116 % of control and the T/C (endpoint: mean survival time, dose: 200.0 mg/kg/injection, schedule: Q01DX009 (ip), vehicle: saline) was 112 % of control.
With `Nc1nc(=S)c2[nH]cnc2[nH]1` the T/C (endpoint: mean survival time, dose: 0.13 mg/kg/injection, schedule: Q01DX009 (ip), vehicle: other) was 110 % of control, the T/C (endpoint: mean survival time, dose: 0.25 mg/kg/injection, schedule: Q01DX009 (ip), vehicle: alkali diluted with saline) was 114 % of control and 120 % of control and the T/C (endpoint: mean survival time, dose: 0.25 mg/kg/injection, schedule: Q01DX009 (ip), vehicle: other) was 121 % of control. For the same compound, the T/C (endpoint: mean survival time, dose: 0.38 mg/kg/injection, schedule: Q01DX009 (ip), vehicle: acid diluted with saline) was 116 % of control and 123 % of control, the T/C (endpoint: mean survival time, dose: 0.5 mg/kg/injection, schedule: Q01DX005 (ip), vehicle: water) was 116 % of control and the T/C (endpoint: mean survival time, dose: 0.5 mg/kg/injection, schedule: Q01DX009 (ip), vehicle: alkali diluted with saline) was 124 % of control. The T/C (endpoint: mean survival time, dose: 0.5 mg/kg/injection, schedule: Q01DX009 (ip), vehicle: other) was 121 % of control, the T/C (endpoint: mean survival time, dose: 0.66 mg/kg/injection, schedule: Q01DX009 (ip), vehicle: clinical formulation) was 150 % of control and the T/C (endpoint: mean survival time, dose: 0.75 mg/kg/injection, schedule: Q01DX009 (ip), vehicle: acid diluted with saline) was 164 % of control. For the same compound, the T/C (endpoint: mean survival time, dose: 1.0 mg/kg/injection, schedule: Q01DX005 (ip), vehicle: alkali diluted with saline) was 163 % of control, the T/C (endpoint: mean survival time, dose: 1.0 mg/kg/injection, schedule: Q01DX005 (ip), vehicle: water) was 120 % of control and the T/C (endpoint: mean survival time, dose: 1.0 mg/kg/injection, schedule: Q01DX007 (ip), vehicle: saline) was 151 % of control. For the same compound, the T/C (endpoint: mean survival time, dose: 1.0 mg/kg/injection, schedule: Q03DX003 (ip), vehicle: saline) was 152 % of control, the T/C (endpoint: mean survival time, dose: 1.0 mg/kg/injection, schedule: Q04DX003 (ip), vehicle: saline) was 154 % of control and the T/C (endpoint: mean survival time, dose: 1.12 mg/kg/injection, schedule: Q04DX003 (ip), vehicle: acid diluted with saline) was 116 % of control and 118 % of control. For the same compound, the T/C (endpoint: mean survival time, dose: 1.2 mg/kg/injection, schedule: Q01DX009 (ip), vehicle: alkali diluted with saline) was 152 % of control and 153 % of control, the T/C (endpoint: mean survival time, dose: 1.47 mg/kg/injection, schedule: Q01DX009 (ip), vehicle: clinical formulation) was 150 % of control and the T/C (endpoint: mean survival time, dose: 1.47 mg/kg/injection, schedule: Q01DX009 (ip), vehicle: saline) was 158 % of control. The T/C (endpoint: mean survival time, dose: 1.5 mg/kg/injection, schedule: Q01DX009 (ip), vehicle: acid diluted with saline) was 164 % of control and 171 % of control and 180 % of control, the T/C (endpoint: mean survival time, dose: 1.56 mg/kg/injection, schedule: Q01DX005 (ip), vehicle: alkali diluted with saline) was 159 % of control and the T/C (endpoint: mean survival time, dose: 1.8 mg/kg/injection, schedule: Q01DX009 (ip), vehicle: alkali diluted with saline) was 151 % of control. The T/C (endpoint: mean survival time, dose: 2.0 mg/kg/injection, schedule: Q01DX005 (ip), vehicle: alkali diluted with saline) was 158 % of control, the T/C (endpoint: mean survival time, dose: 2.0 mg/kg/injection, schedule: Q03DX003 (ip), vehicle: saline) was 160 % of control and the T/C (endpoint: mean survival time, dose: 2.0 mg/kg/injection, schedule: Q04DX003 (ip), vehicle: alkali diluted with saline) was 122 % of control. For the same compound, the T/C (endpoint: mean survival time, dose: 2.0 mg/kg/injection, schedule: Q04DX003 (ip), vehicle: saline) was 160 % of control, the T/C (endpoint: mean survival time, dose: 2.2 mg/kg/injection, schedule: Q01DX009 (ip), vehicle: clinical formulation) was 155 % of control and the T/C (endpoint: mean survival time, dose: 3.0 mg/kg/injection, schedule: Q01DX009 (ip), vehicle: alkali diluted with saline) was 536 % of control. For the same compound, the T/C (endpoint: mean survival time, dose: 3.12 mg/kg/injection, schedule: Q01DX005 (ip), vehicle: alkali diluted with saline) was 188 % of control, the T/C (endpoint: mean survival time, dose: 4.0 mg/kg/injection, schedule: Q01DX005 (ip), vehicle: alkali diluted with saline) was 150 % of control and the T/C (endpoint: mean survival time, dose: 4.0 mg/kg/injection, schedule: Q01DX007 (ip), vehicle: saline) was 152 % of control. For the same compound, the T/C (endpoint: mean survival time, dose: 4.0 mg/kg/injection, schedule: Q01DX009 (ip), vehicle: acid diluted with saline) was 122 % of control, the T/C (endpoint: mean survival time, dose: 4.0 mg/kg/injection, schedule: Q03DX003 (ip), vehicle: saline) was 156 % of control and the T/C (endpoint: mean survival time, dose: 4.0 mg/kg/injection, schedule: Q04DX003 (ip), vehicle: saline) was 176 % of control. For the same compound, the T/C (endpoint: mean survival time, dose: 4.5 mg/kg/injection, schedule: Q04DX003 (ip), vehicle: acid diluted with saline) was 161 % of control, the T/C (endpoint: mean survival time, dose: 6.25 mg/kg/injection, schedule: Q01DX005 (ip), vehicle: alkali diluted with saline) was 159 % of control and the T/C (endpoint: mean survival time, dose: 9.0 mg/kg/injection, schedule: Q04DX003 (ip), vehicle: acid diluted with saline) was 166 % of control. For the same compound, the T/C (endpoint: mean survival time, dose: 12.5 mg/kg/injection, schedule: Q01DX005 (ip), vehicle: alkali diluted with saline) was 119 % of control, the T/C (endpoint: mean survival time, dose: 18.0 mg/kg/injection, schedule: Q04DX003 (ip), vehicle: acid diluted with saline) was 176 % of control and the T/C (endpoint: mean survival time, dose: 20.0 mg/kg/injection, schedule: Q04DX003 (ip), vehicle: alkali diluted with saline) was 152 % of control. The T/C (endpoint: mean survival time, dose: 23.0 mg/kg/injection, schedule: Q01DX001 (ip), vehicle: alkali diluted with saline) was 158 % of control, the T/C (endpoint: mean survival time, dose: 25.0 mg/kg/injection, schedule: Q01DX005 (ip), vehicle: alkali diluted with saline) was 96 % of control and the T/C (endpoint: mean survival time, dose: 31.0 mg/kg/injection, schedule: Q01DX001 (ip), vehicle: alkali diluted with saline) was 161 % of control. For the same compound, the T/C (endpoint: mean survival time, dose: 47.0 mg/kg/injection, schedule: Q01DX001 (ip), vehicle: alkali diluted with saline) was 167 % of control, the T/C (endpoint: median survival time, dose: 0.86 mg/kg/injection, schedule: Q01DX009 (ip), vehicle: acid diluted with saline) was 152 % of control and 154 % of control and the T/C (endpoint: median survival time, dose: 1.44 mg/kg/injection, schedule: Q01DX009 (ip), vehicle: acid diluted with saline) was 160 % of control. For the same compound, the T/C (endpoint: median survival time, dose: 2.4 mg/kg/injection, schedule: Q01DX009 (ip), vehicle: acid diluted with saline) was 158 % of control, the T/C (endpoint: median survival time, dose: 2.7 mg/kg/injection, schedule: Q04DX003 (ip), vehicle: alkali diluted with saline) was 159 % of control and the T/C (endpoint: median survival time, dose: 4.0 mg/kg/injection, schedule: Q01DX009 (ip), vehicle: acid diluted with saline) was 151 % of control and 152 % of control. For the same compound, the T/C (endpoint: median survival time, dose: 4.5 mg/kg/injection, schedule: Q04DX003 (ip), vehicle: alkali diluted with saline) was 172 % of control, the T/C (endpoint: median survival time, dose: 7.5 mg/kg/injection, schedule: Q04DX003 (ip), vehicle: alkali diluted with saline) was 191 % of control and the T/C (endpoint: median survival time, dose: 12.5 mg/kg/injection, schedule: Q04DX003 (ip), vehicle: alkali diluted with saline) was 187 % of control. For the same compound, the T/C (endpoint: median survival time, dose: 20.0 mg/kg/injection, schedule: Q04DX003 (ip), vehicle: alkali diluted with saline) was 151 % of control, the T/C (endpoint: median survival time, dose: 20.83 mg/kg/injection, schedule: Q04DX003 (ip), vehicle: alkali diluted with saline) was 166 % of control and the T/C (endpoint: median survival time, dose: 40.0 mg/kg/injection, schedule: Q01DX001 (ip), vehicle: alkali diluted with saline) was 150 % of control and 161 % of control. For the same compound, the T/C (endpoint: median survival time, dose: 60.0 mg/kg/injection, schedule: Q01DX001 (ip), vehicle: alkali diluted with saline) was 183 % of control.
In the case of `N/C(=N\N=C1CCCC1)N[N+](=O)[O-]`, the T/C [1] is reported as 96 % of control, the T/C [2] is reported as 102 % of control and the T/C [3] is reported as 104 % of control.
For `Nc1cccc2nc3ccccc3cc12`, the T/C [4] was 93 % of control, the T/C [1] was 92 % of control and the T/C (endpoint: mean survival time, dose: 200.0 mg/kg/injection, schedule: Q01DX009 (ip), vehicle: saline with Tween-80) was 95 % of control. For the same compound, the T/C [2] was 94 % of control and the T/C [3] was 91 % of control.
With `COc1ccc2c(c1)N(CC(C)C[N+](C)(C)CCCCCCCCCCCCCCCC[N+](C)(C)CC(C)CN1c3ccccc3Sc3ccc(OC)cc31)c1ccccc1S2` (stereo not drawn) the T/C (endpoint: mean survival time, dose: 100.0 mg/kg/injection, schedule: Q04DX003 (ip), vehicle: saline) was 91 % of control and the T/C (endpoint: mean survival time, dose: 200.0 mg/kg/injection, schedule: Q04DX003 (ip), vehicle: saline) was 91 % of control.
For `COC1NC(=O)NC(=O)C1=[N+]=[N-]` (stereo not drawn), the T/C [5] was 113 % of control.
`C=C(Br)CNC(=O)CCC` was tested, and the T/C [5] was 107 % of control, the T/C (endpoint: mean survival time, dose: 5.0 mg/kg/injection, schedule: Q01DX009 (ip), vehicle: saline with Tween-80) was 106 % of control and the T/C (endpoint: mean survival time, dose: 10.0 mg/kg/injection, schedule: Q01DX009 (ip), vehicle: saline with Tween-80) was 102 % of control.
For `CC(=O)CC(=O)OCOC(=O)CC(C)=O`, the T/C (endpoint: mean survival time, dose: 100.0 mg/kg/injection, schedule: Q04DX003 (ip), vehicle: Klucel (hydroxypropylcellulose) (HPC)) was 102 % of control, the T/C (endpoint: mean survival time, dose: 200.0 mg/kg/injection, schedule: Q04DX003 (ip), vehicle: Klucel (hydroxypropylcellulose) (HPC)) was 106 % of control and the T/C (endpoint: mean survival time, dose: 400.0 mg/kg/injection, schedule: Q04DX003 (ip), vehicle: Klucel (hydroxypropylcellulose) (HPC)) was 106 % of control.
For `COc1ccccc1NC(=O)Oc1ccccc1-c1ccccc1`, the T/C (endpoint: mean survival time, dose: 25.0 mg/kg/injection, schedule: Q01DX009 (ip), vehicle: saline with Tween-80) was 93 % of control, the T/C (endpoint: mean survival time, dose: 25.0 mg/kg/injection, schedule: Q04DX002 (ip), vehicle: saline with Tween-80) was 98 % of control and the T/C (endpoint: mean survival time, dose: 50.0 mg/kg/injection, schedule: Q01DX009 (ip), vehicle: saline with Tween-80) was 93 % of control. The T/C (endpoint: mean survival time, dose: 50.0 mg/kg/injection, schedule: Q04DX002 (ip), vehicle: saline with Tween-80) was 110 % of control, the T/C [4] was 93 % of control and the T/C (endpoint: mean survival time, dose: 100.0 mg/kg/injection, schedule: Q04DX002 (ip), vehicle: saline with Tween-80) was 87 % of control and 104 % of control.
